Reference: patent US20260053811A1, “METHODS OF TREATING HYPERTENSION IN OBESE SUBJECTS” (Mineralys Therapeutics, Inc., priority 2022, published 2026)
Marks after values point to notes of the source that are not given here.

System: hypertensive subjects
Assay: Seated automated office blood pressure (AOBP) in randomized, placebo-controlled, dose-ranging study
Assay type: in vivo, human
Set-up: Difference from placebo in change in blood pressure: unit not given here
Conditions: for Modelled (ANCOVA) LSM (SEM) change from baseline, seated AOBP SBP / LSM Δ with PRA Baseline <1 ng/mL/h, seated AOBP SBP (ANCOVA): 100 mg QD Parts 1 & 2
Experimental: A randomized, double-blinded, placebo-controlled, dose-ranging, multicenter study was conducted to evaluate the effect of orally administered Compound A HBr on blood pressure for the treatment of hypertension in male and female subjects ≥18 years of age.
The study consists of two parts. For enrollment into Part 1 of the study, a subject's value of plasma renin activity (PRA) must be ≤1 ng/mL/h based on morning measurement. If the value of PRA >1 ng/mL/h based on morning measurement, then subjects may be eligible to enter Part 2 of the study.
For Part 1, 163 enrolled subjects ≥18 years of age were randomized into 6 equal treatment groups (1:1:1:1:1:1) to 12.5 mg BID, 25 mg BID, 12.5 mg QD, 50 mg QD, 100 mg QD, or placebo. After a review of interim clinical data, the 2 lowest dose levels (12.5 mg QD and 12.5 mg BID) were stopped for future randomization due to a lack of consistent meaningful reduction of blood pressure, but the patients randomized to that point remained in the study through completion. Thus, after the review of interim clinical data, subjects were randomized into 4 equal treatment groups (1:1:1:1) to 25 mg BID, 50 mg QD, 100 mg QD, or placebo.
For Part 2, 36 enrolled subjects ≥18 years of age were randomized (5:1) to either 100 mg QD Compound A HBr or placebo such that the Compound A HBr treatment group consisted of approximately 30 subjects and the placebo treatment group will consist of approximately 6 subjects.
Subjects orally administered the assigned study drug (Compound A HBr or placebo) according to the assigned dosing regimen for 8 weeks beginning on Study Day 1. All subjects in Part 1 (regardless of dosing group) received BID dosing to preserve the integrity of the blind; active drug is administered as the morning dose for all QD dose groups. Subjects returned to the research facility or were seen by the clinical investigator or approved home health care professional at the end of Study Weeks 1, 2, 3, 4, 5, 6, 7, and 8 (±2 days) for protocol-defined efficacy and safety assessments and procedures, assessment of adverse events (AEs), and confirmation of compliance with study drug usage. Subjects also completed a telephone visit and blood pressure (BP) check at home approximately 3 days post last dose of study drug. Subjects attended up to 14 full clinic visits, including a pre-Screening visit, a Screening/start of Placebo Run-in visit, a second visit during Placebo Run-in, a clinic visit to initiate the ABPM procedure, a Randomization visit, 8 weekly visits during double-blind treatment, and an end-of-study visit scheduled 4 weeks after the last study treatment for final efficacy and safety assessments.
An automated oscillometric sphygmomanometer device was used to measure the subjects' systolic and diastolic blood pressure in office after approximately 5 minutes of rest in the seated position.
The primary endpoint is the change in office-measured (mean of last 2 of 5 unattended measurements using an automated oscillometric sphygmomanometer device after approximately 5 minutes of rest in the seated position) systolic blood pressure (SBP) from baseline to the end of Study Week 8.
Secondary endpoints of this study were: • (a) Change in 24-hour ambulatory blood pressure monitoring (ABPM) parameters (systolic and diastolic) from baseline to the end of Study Week 7. • (b) Change in office-measured SBP from baseline to the end of Study Weeks 1, 2, 3, 4, 5, 6, and 7. • (c) Change in office-measured diastolic blood pressure (DBP) from baseline to the end of Study Weeks 1, 2, 3, 4, 5, 6, 7, and 8. • (d) Proportion of subjects who achieve office-measured BP of ≤130/80 mm Hg by the end of Study Week 8.

[1] = 100 mg QD Part 2, Week 8, Parts 1 & 2 model, FAS
[2] = PRA Baseline >=1 ng/mL/h, Week 4, FAS
[3] = PRA Baseline >=1 ng/mL/h, Week 8, FAS

CC(=O)N[C@H]1CC[C@H](NC(=O)CN2CCN(c3nncc(-c4ccc(C)cc4)n3)CC2)CC1 [Compound A HBr]
LSM Δ with Placebo, change from baseline in seated AOBP SBP (MMRM) (100 mg QD Part 2 (vs 100 mg QD Part 1 per text), Week 8, FAS): 0.74 mmHg
LSM Δ with 100 mg QD Part 1, seated AOBP DBP (MMRM) (100 mg QD Part 2, Week 4, FAS): −0.43 mmHg
Modelled (MMRM) LSM (SEM) change from baseline, seated AOBP DBP (100 mg QD Part 2, Week 4, Parts 1 & 2 model, FAS): −6.30 (1.44) mmHg
Modelled (MMRM) LSM (SEM) change from baseline, seated AOBP DBP [1]: −5.55 (1.42) mmHg
Modelled (MMRM) LSM (SEM) change from baseline, seated AOBP SBP [1]: −11.35 (2.48) mmHg
Modelled (ANCOVA) LSM (SEM) change from baseline, seated AOBP SBP (PRA Baseline <1 ng/mL/h, Week 4, FAS): −15.42 (3.12) mmHg
Modelled (ANCOVA) LSM (SEM) change from baseline, seated AOBP SBP (PRA Baseline <1 ng/mL/h, Week 8, FAS): −11.27 (3.13) mmHg
LSM Δ with PRA Baseline <1 ng/mL/h, seated AOBP SBP (ANCOVA) [2]: 0.18 mmHg
Modelled (ANCOVA) LSM (SEM) change from baseline, seated AOBP SBP [2]: −15.24 (2.75) mmHg
LSM Δ with PRA Baseline <1 ng/mL/h, seated AOBP SBP (ANCOVA) [3]: −2.07 mmHg
Modelled (ANCOVA) LSM (SEM) change from baseline, seated AOBP SBP [3]: −13.34 (2.52) mmHg
Difference from placebo in change in blood pressure (100 mg QD, BMI 25-30): −2.6
Difference from placebo in change in blood pressure (100 mg QD, BMI >30): −13.2*
Mean placebo-adjusted reduction in AOBP SBP (100 mg QD, Part 1, Week 8): 7.81 mmHg
Proportion of subjects with AOBP ≤130/80 mmHg (100 mg QD, Part 1, Week 8): 30%
Proportion of subjects with AOBP ≤130/80 mmHg (100 mg QD, Part 2, Week 8): 54.8%
Mean reduction in AOBP systolic BP, placebo-corrected, Full-analysis set (100 mg QD, Part-1 and Part-2 (interim) combined, N=58 active): −9.9 mmHg
Difference from placebo in change in blood pressure (100 mg QD, Thiazide No): −3.3
Difference from placebo in change in blood pressure (100 mg QD, Thiazide Yes): −11.4*
Seated AOBP DBP change from baseline (CFB), Mean (SD) (100 mg QD, Week 1, Part 1, FAS): 0.98 (8.29) mmHg
Seated AOBP DBP, Mean (SD) (100 mg QD, Week 1, Part 1, FAS): 79.70 (11.07) mmHg
Seated AOBP SBP change from baseline (CFB), Mean (SD) (100 mg QD, Week 1, Part 1, FAS): 0.06 (12.66) mmHg
Seated AOBP SBP, Mean (SD) (100 mg QD, Week 1, Part 1, FAS): 144.41 (14.54) mmHg
Seated AOBP DBP change from baseline (CFB), Mean (100 mg QD, Week 1, Part 2, FAS): −5.85 mmHg
Seated AOBP DBP, Mean (100 mg QD, Week 1, Part 2, FAS): 72.19 mmHg
Seated AOBP SBP change from baseline (CFB), Mean (100 mg QD, Week 1, Part 2, FAS): −11.35 mmHg
Seated AOBP SBP, Mean (100 mg QD, Week 1, Part 2, FAS): 129.00 mmHg
Seated AOBP DBP change from baseline (CFB), Mean (SD) (100 mg QD, Week 2, Part 1, FAS): −2.14 (9.60) mmHg
Seated AOBP DBP, Mean (SD) (100 mg QD, Week 2, Part 1, FAS): 76.36 (11.90) mmHg
Seated AOBP SBP change from baseline (CFB), Mean (SD) (100 mg QD, Week 2, Part 1, FAS): −5.64 (16.38) mmHg
Seated AOBP SBP, Mean (SD) (100 mg QD, Week 2, Part 1, FAS): 139.04 (18.22) mmHg
Seated AOBP DBP change from baseline (CFB), Mean (100 mg QD, Week 2, Part 2, FAS): −5.13 mmHg
Seated AOBP DBP, Mean (100 mg QD, Week 2, Part 2, FAS): 73.10 mmHg
Seated AOBP SBP change from baseline (CFB), Mean (100 mg QD, Week 2, Part 2, FAS): −8.80 mmHg
Seated AOBP SBP, Mean (100 mg QD, Week 2, Part 2, FAS): 131.33 mmHg
Seated AOBP DBP change from baseline (CFB), Mean (SD) (100 mg QD, Week 3, Part 1, FAS): −5.48 (9.36) mmHg
Seated AOBP DBP, Mean (SD) (100 mg QD, Week 3, Part 1, FAS): 72.84 (10.83) mmHg
Seated AOBP SBP change from baseline (CFB), Mean (SD) (100 mg QD, Week 3, Part 1, FAS): −9.20 (11.37) mmHg
Seated AOBP SBP, Mean (SD) (100 mg QD, Week 3, Part 1, FAS): 136.56 (14.68) mmHg
Seated AOBP DBP change from baseline (CFB), Mean (100 mg QD, Week 3, Part 2, FAS): −4.76 mmHg
Seated AOBP DBP, Mean (100 mg QD, Week 3, Part 2, FAS): 73.72 mmHg
Seated AOBP SBP change from baseline (CFB), Mean (100 mg QD, Week 3, Part 2, FAS): −8.76 mmHg
Seated AOBP SBP, Mean (100 mg QD, Week 3, Part 2, FAS): 131.52 mmHg
LSM Δ with Placebo, seated AOBP DBP (MMRM) (100 mg QD, Week 4, Part 1, FAS): −6.42 mmHg
Modelled (MMRM) LSM (SEM) change from baseline, seated AOBP DBP (100 mg QD, Week 4, Part 1, FAS): −6.96 (1.48) mmHg
